Assay results from patent publication EP1624852B1, “SUN TANNING PRODUCTS AND PRODUCTS FOR TREATMENT OF THE SKIN BEFORE AND AFTER EXPOSURE TO THE SUN” (Gecomwert Anstalt, priority 2003, dated 2004).

Tested on: skin of the forearm
Assay: in vivo tanning test: skin colour read with Minolta CR 200 Chromameter after UVA irradiation
Set-up: species or system volunteers
Conditions: for Percentage increase WHITE (-L*) / Percentage increase RED (a*) / Percentage increase YELLOW (B*): 15 volunteers, forearm skin, UVA 10 minutes every 24 hours, irradiated untreated skin = 100%
Protocol: In order to evaluate the effectiveness of the group of components in question in extending the formation of a tan, an in vivo test with a cream containing tyrosine conjugated with 0.750 oleic acid was carried out in vivo on 15 volunteers over a period of 14 days. Three adjacent zones on the skin of the forearm of each volunteer were identified. The first irradiated zone was treated with an emulsion containing only a sun filter (placebo), the second with an emulsion containing both the filter and the lipophilic tyrosine, the third was not treated with any emulsion (control) . The three zones of the skin were irradiated simultaneously with UVA light for 10 minutes every 24 hours (1 hour after application of the creams) for two weeks. The skin colour was read instrumentally using the Minolta® CR 200 Chromameter instrument, a device for measuring the colour of surfaces which is capable of analysing the strength of the colouration using a Xenon lamp, subdividing it into three different parameters (corresponding to the white component (-L*), the red component (a*) and the yellow component (B*)). Each reading was made 24 hours after each exposure to UVA light, in order to minimise instantaneous pigmentation phenomena. The average percentage increase in the colour of the skin treated with lipophilic tyrosine in comparison with the portion of the skin treated with placebo was calculated, assigning a value of 100% to the strength of the colour of the irradiated skin in the absence of emulsion.
Values of the average percentage increase in the white, red and yellow parameters found are shown in the following table: Percentage increase in the 3 parameters

## tyrosine conjugated with oleic acid
1st day, emulsion with filter and lipophilic tyrosine vs placebo (filter only), reading 24 hours after exposure
  Percentage increase WHITE (-L*): -70.20%
1st day, vs placebo
  Percentage increase RED (a*): 66.60%
6th day, vs placebo
  Percentage increase RED (a*): 73.16%
  Percentage increase WHITE (-L*): -79.00%
  Percentage increase YELLOW (B*): 62.26%
Mean after 14 days, vs placebo
  Percentage increase RED (a*): 73.50%
  Percentage increase WHITE (-L*): -69.00%
  Percentage increase YELLOW (B*): 65.00%
Treated skin in comparison with skin treated with placebo
  decrease in white with simultaneous increase in the red and yellow components over time: significantly greater
